The values below come from patent US20090054326A1 (NASTECH PHARMACEUTICAL COMPANY INC., priority 2005, published 2009).

For one assay, the system named is aminopeptidases. As to conditions: cited from earlier work.
The subject of assay [1] is normal, human-derived tracheal/bronchial epithelial cells (EpiAirway Tissue Model). As to the kind of experiment: Transepithelial electrical resistance (TER) in EpiAirway tissue model. As to conditions: after one hour exposure at 37° C.; Examples 1-4. Type of assay: cell-based. Here is the method:
Samples were evaluated in an in vitro tissue model. […] Inserts were feed for each day of recovery.
TER measurements were accomplished using the Endohm-12 Tissue Resistance Measurement Chamber connected to the EVOM Epithelial Voltohmmeter (World Precision Instruments, Sarasota, Fla.) with the electrode leads. The electrodes and a tissue culture blank insert were equilibrated for at least 20 minutes in MatTek medium with the power off prior to check calibration. The background resistance was measured with 1.5 ml Media in the Endohm tissue chamber and 300 μl Media in the blank insert. The top electrode was adjusted so that it was close to, but not making contact with, the top surface of the insert membrane. Background resistance of the blank insert was about 5-20 ohms. For each TER determination, 300 μl of MatTek medium was added to the insert followed by placement in the Endom chamber. Resistance was expressed as (resistance measured−blank)×0.6 cm^2.

In the case of `CC(C)CC(N)B(O)O` (stereo not drawn) [boro-leucine], in the assay on aminopeptidases (relative to bestatin), the “more effective in enzyme inhibition than bestatin” value is reported as “more than 100 times”. Further, the “more effective in enzyme inhibition than puromycin” value with aminopeptidases (relative to puromycin) is on record as “more than 1000 times”.

Consider Triton X, for which the “change in TER” value in assay [1] is “essentially a complete reduction in TER”.
